Data on 1 compound can be found in US20100273789A1, “AMINOACYL PRODRUGS” (BAYER SCHERING PHARMA AKTIENGESELLSCHAFT, priority 2007, published 2010).

This data set can be described thus: Determination of the solubility. Type of data set: physicochemical. The following applies: in water and physiological media. Here is the method:
The test substance is suspended in water or dilute hydrochloric acid (pH 4). This suspension is shaken at room temperature for 24 h. After ultracentrifugation at 224 000 g for 30 min, the supernatant is diluted with DMSO and analyzed by HPLC. A two-point calibration plot of the test compound in DMSO is used for quantification.
Agilent 1100 with DAD (G1315A), quat. pump (G1311A), autosampler CTC HTS PAL, degasser (G1322A) and column thermostat (G1316A); column: Zorbax Extend-C18 3.5μ; temperature: 40° C.; mobile phase A: water+5 ml of perchloric acid/liter, mobile phase B: acetonitrile; flow rate: 0.7 ml/min; gradient: 0-0.5 min 98% A, 2% B; ramp 0.5-4.5 min 10% A, 90% B; 4.5-6 min 10% A, 90% B; ramp 6.5-6.7 min 98% A, 2% B; 6.7-7.5 min 98% A, 2% B.

Take `O=C(NC[C@H]1CN(c2ccc(N3CCOCC3=O)cc2F)C(=O)O1)c1ccc(Cl)s1` [compound (A), 5-Chloro-N-({(5S)-3-[2-fluoro-4-(3-oxomorpholin-4-yl)phenyl]-2-oxo-1,3-oxazolidin-5-yl}methyl)thiophene-2-carboxamide]: the solubility entry is “limited solubility”.
